This note sets out measurements from article PMC10098121, “Amphipathic barbiturates as marine product mimics with cytolytic and immunogenic effects on head and neck squamous cell carcinoma cell lines” (Frontiers in Pharmacology, 2023).

Holding throughout (format): cell-based, human
Test [1] relates to phosphorylated eIF2α in HSC-3 cells. In words: Western blot for phosphorylated eIF2α. To be noted: HSC-3, 24 h; cisplatin 50 µM, MPMs 5-20 µM. Here is the method:
(§1) HSC-3 and UT-SCC-24A cells were seeded, 300,000 cells/well, in 6-well plates and left to adhere overnight. The media was then removed and replaced by 2 ml complete DMEM/F-12 containing 5, 7.5, 10 or 20 µM of MPM-2:0, MPM-6:0, MPM-3:2 or MPM-4:2, or 50 µM cisplatin. Some cells were left untreated. The cells were then incubated for 24 h. Next, the cell supernatants were collected before the cells were trypsinized and spun down with the supernatants. The cells were then washed twice in ice-cold PBS before being resuspended in 100 µl RIPA buffer (25 mM Tris-HCl (pH 7,6), 150 mM NaCl, 0.1% SDS, 0.5% sodium deoxycholate, 1% Triton X-100) containing 1% protease inhibitor (SIGMAFASTTM, #S8830, Sigma-Aldrich) and incubated on a shaker for 30 min. Next, the samples were sonicated and then kept at −70°C before being used. The samples were kept on ice or at 4°C during the whole procedure. The samples were thawed on ice and the protein concentration was measured using the DC Protein Assay kit (#5000111, Bio-Rad Laboratories, Hercules, CA, United States). 8 μg of protein was taken from each sample and mixed with DTT (final concentration 50 mM) and 20% 5 × sample buffer (250 mM Tris-HCl pH 6.8, 10% SDS, 20% Glycerol, 0.01% Bromphenol Blue). […]

For test [2], the system named is phosphorylated eIF2α in UT-SCC-24A cells. In words: Western blot for phosphorylated eIF2α. The settings on record: 24 h, cisplatin 50 µM, MPMs 5-20 µM. Here is the method:
as §1

The subject of test [3] is cell surface calreticulin on HSC-3 cells. The test can be described thus: Flow cytometric detection of cell surface calreticulin. To be noted: HSC-3, 24 h; cisplatin 50 µM, MPMs 5-20 µM; vs untreated. How it is done:
This procedure was based on a published method ([Liu et al., 2020]), but was performed with some modifications. Briefly, HSC-3 and UT-SCC-24A cells were seeded, 300,000 cells/well, in 6-well plates and left to adhere overnight. The media was then removed and replaced by 2 ml complete DMEM/F-12 containing 5, 7.5, 10 or 20 µM of MPM-2:0, MPM-6:0, MPM-3:2 or MPM-4:2, or 50 µM cisplatin. Some cells were left untreated. The cells were then incubated for 24 h. Next, the cell supernatants were collected before the cells were trypsinized and spun down with the supernatants. The cells were then washed in PBS before being incubated with the viability dye Zombie Violet (#423114, BioLegend, San Diego, CA, United States) diluted 1:500 in PBS for 20 min. Next, the cells were incubated with an anti-calreticulin antibody (#ab2907, Abcam) diluted 1:100 in FACS buffer (2%BSA in PBS) for 30 min. The cells were then fixed in 4% formaldehyde for 15 min and washed twice in FACS buffer before being incubated with the secondary antibody (#A11034, Thermo Fisher Scientific) diluted 1:250 in FACS buffer for 30 min. The cells were washed in FACS buffer and analyzed on a LSR Fortessa (BD Biosciences) within 1 week. Analyses were performed in FlowJo™ v.10 (https://www.flowjo.com/).
(In general: In flow cytometry, cells or beads pass a laser one at a time.)

The subject of the next test is HSC-3 cells. In words: Live cell apoptosis assay (caspase 3/7, proliferation). To be noted: HSC-3, 24 h; MPMs 5 or 10 µM, cisplatin 10 µM. How it is done: A black-walled 96-well plate (#6005182, PerkinElmer, Waltham, MA, United States) was coated with 50 µl myogel (0.5 mg/ml) per well. The next day, HSC-3 and UT-SCC-24A cells were stained with CellTrace Far Red (Invitrogen, Carlsbad, CA, USA) by resuspending 500,000 cells in 500 µl PBS and adding 0.5 µl of the dye before incubating the cells at 37°C for 20 min. Next, 2.5 ml of complete media was added to the cells, and they were incubated for another 5 min. The cells were then centrifuged and resuspended in complete media. The media remaining in the wells of the 96-well plate after myogel coating was removed and the cells were seeded with 1,000 cells/well in 100 µl of media. The cells were left to adhere overnight, and the following day, the media was replaced with 100 µl of media containing the Incucyte® caspase-3/7 green dye for apoptosis (Sartorius, Göttingen, Germany) (diluted 1:1,000), as well as 5 or 10 µM of the MPMs or 10 µM cisplatin. Control wells only contained media and the caspase-3/7 green dye. The plate was placed in the Incucyte S3 (Sartorius) and imaged at ×10 magnification every 2 hours for 24 h in total. Each condition had triplicate wells, and four images were taken per well. The experiment was conducted three times. The Incucyte software was used to analyze the area of red fluorescence (proliferation) and number of green and red objects (apoptotic cells).

`N.N.[Cl][Pt][Cl]` [Cisplatin, cisplatin, reference compound]: in test [1], the “phosphorylation of eIF2α (in words)” value is on record as “induced high levels of phosphorylated eIF2α”. In addition, in test [2], the “phosphorylation of eIF2α (in words)” value is listed as “induced high levels of phosphorylated eIF2α”. For the same compound, the “cell surface expression of calreticulin (in words)” value in test [3] was “did not induce any cell surface expression of calreticulin”. Besides, in the test with HSC-3 cells, the “activation of caspase 3/7 / apoptosis (in words)” value is “only induced apoptosis in a minority of HSC-3 cells” and the “proliferation (area of red fluorescence, in words)” value is given as “inhibited proliferation in HSC-3 cells”.
